Like-named read-outs stand apart in the source and are kept apart here.
Columns and labels:
CSFV isolate = test system: CSFV isolate; set-up: species or system pigs; settings: pig, in vivo
[1] = test system: PBMC from vaccinated and challenged pigs; type: cell-based
[2] = test system: CSFV reference strain Alfort 187; type: cell-based, porcine

LRAAMVEYSYIFLDEY [SEQ ID NO:2]
Occurrence of symptoms of CSFV infection compared with control group (CSFV isolate): reduced occurrence of symptoms of CSFV infection
Recognition of individual antigenic peptides (IFN-γ) [1]: recognition

IFN-α
Proportion of infected cells [2]: eliminated the infection

NKYFEPRDSYFQQYML [SEQ ID NO:1]
Occurrence of symptoms of CSFV infection compared with control group (CSFV isolate): reduced occurrence of symptoms of CSFV infection

N[C@@H](Cc1c[nH]c2ccccc12)C(=O)O [L-tryptophan]
Effect on IFN-γ mediated reduction in the proportion of CSFV infected cells [2]: unaffected

N[C@H](Cc1c[nH]c2ccccc12)C(=O)O [D-tryptophan]
Effect on IFN-γ mediated reduction in the proportion of CSFV infected cells [2]: unaffected

NIMARTDHPEPIQLAY [SEQ ID NO:3]
Occurrence of symptoms of CSFV infection compared with control group (CSFV isolate): reduced occurrence of symptoms of CSFV infection
Recognition of individual antigenic peptides (IFN-γ) [1]: recognition

L-N-6-(1-iminoethyl)lysine hydrochloride
Effect on IFN-γ mediated reduction in the proportion of CSFV infected cells ([2]; after 48 hours): unaffected

From patent US20120258127A1 (priority 2010, published 2012)
